Measurements published in the supplement of paper PMC10627819.

Key:
[1] = system: S. pneumoniae D39V; experiment: fitness (endpoint OD595 vs no drug) (fraction); higher = more growth
Outline: (§1)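 Fitness was measured as bacterial growth in 384-well plates inoculated at OD595 0.01 (30 µl, or 55 µl for S. pneumoniae). Media were TSB, LB Lennox or CY, at 37 °C. OD595 was read every 30 min for 14 h and background-subtracted against the first reading. Fitness is OD595 at the transition into stationary phase divided by the robust mean of no-drug control wells, capped at 1.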

[2] = system: B. subtilis 168; experiment: as above
Outline: as §1

[3] = system: S. aureus Newman; experiment: as above
Outline: as §1

[4] = system: S. aureus DSM 20231; experiment: Bliss interaction score (quartile over a dose matrix) (fitness difference); higher = more antagonism (negative = synergy)
Outline: (§2)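 Fitness was OD595 at entry into stationary phase divided by the plate's robust no-drug mean and capped at 1; single-drug fitness was inferred from combination data. The Bliss score is observed minus expected (product) fitness, summarised by quartiles over technical, biological and donor/recipient replicates.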

[5] = system: S. pneumoniae D39V; experiment: as above
Outline: as §2

[6] = system: B. subtilis 168; experiment: as above
Outline: as §2

[7] = system: S. aureus Newman; experiment: as above
Outline: as §2
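For Bliss interaction score (quartile over a dose matrix) in this document: first quartile when negative (synergy) and third quartile when positive (antagonism).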

O=C(O)c1cn(C2CC2)c2cc(N3CCNCC3)c(F)cc2c1=O [Ciprofloxacin] + O=C(O[C@@H]1Cc2c(O)cc(O)cc2O[C@@H]1c1cc(O)c(O)c(O)c1)c1cc(O)c(O)c(O)c1 [EGCG]
fitness
Details | partner 6.25 µg/mL | partner 12.5 µg/mL | partner 25 µg/mL | partner 50 µg/mL
[1], first compound 0.125 µg/mL | – | 0.931 | 0.907 | 0.971
[1], first compound 0.25 µg/mL | – | 0.796 | 0.889 | 0.69
[2], first compound 0.0098 µg/mL | 0.878 | – | – | –
[2], first compound 0.0195 µg/mL | 0.741 | 0.54 | 0.375 | –
[2], first compound 0.039 µg/mL | – | 0.35 | 0.295 | –
[3], first compound 0.0375 µg/mL | – | 0.666 | 0.557 | 0.544
[3], first compound 0.075 µg/mL | – | 0.55 | 0.534 | 0.609
[3], first compound 0.15 µg/mL | – | 0.0805 | 0.0356 | 0.053

Details | Bliss interaction score
[4] | 0.0949
[5] | -0.0717
[6] | 0.149
[7] | -0.0544

COc1cccc2c1C(=O)c1c(O)c3c(c(O)c1C2=O)C[C@@](O)(C(=O)CO)C[C@@H]3O[C@H]1C[C@H](N)[C@H](O)[C@H](C)O1 [Doxorubicin] + CC(C1CCC(C(O1)OC2C(CC(C(C2O)OC3C(C(C(CO3)(C)O)NC)O)N)N)N)NC [Gentamicin]
main component drawn
Details | fitness
[1], first compound 0.25 µg/mL, partner 2 µg/mL | 0.919
[1], first compound 0.25 µg/mL, partner 4 µg/mL | 0.919
[1], first compound 0.25 µg/mL, partner 8 µg/mL | 0.882
[1], first compound 0.5 µg/mL, partner 2 µg/mL | 0.937
[1], first compound 0.5 µg/mL, partner 4 µg/mL | 0.943
[1], first compound 0.5 µg/mL, partner 8 µg/mL | 0.848
[1], first compound 1 µg/mL, partner 2 µg/mL | 0.806
[1], first compound 1 µg/mL, partner 4 µg/mL | 0.822
[1], first compound 1 µg/mL, partner 8 µg/mL | 0.76
[2], first compound 0.625 µg/mL, partner 0.0625 µg/mL | 0.905
[2], first compound 0.625 µg/mL, partner 0.25 µg/mL | 0.079
[2], first compound 1.25 µg/mL, partner 0.0625 µg/mL | 0.804
[2], first compound 1.25 µg/mL, partner 0.25 µg/mL | 0.086
[2], first compound 2.5 µg/mL, partner 0.25 µg/mL | 0.0548
[3], first compound 0.625 µg/mL, partner 0.375 µg/mL | 0.753
[3], first compound 0.625 µg/mL, partner 0.5 µg/mL | 0.841
[3], first compound 0.625 µg/mL, partner 0.75 µg/mL | 0.778
[3], first compound 0.625 µg/mL, partner 1 µg/mL | 0.937
[3], first compound 0.625 µg/mL, partner 1.5 µg/mL | 0.777
[3], first compound 0.625 µg/mL, partner 2 µg/mL | 0.875
[3], first compound 1.25 µg/mL, partner 0.375 µg/mL | 0.794
[3], first compound 1.25 µg/mL, partner 0.5 µg/mL | 0.783
[3], first compound 1.25 µg/mL, partner 0.75 µg/mL | 0.784
[3], first compound 1.25 µg/mL, partner 1 µg/mL | 0.826
[3], first compound 1.25 µg/mL, partner 1.5 µg/mL | 0.793
[3], first compound 1.25 µg/mL, partner 2 µg/mL | 0.887
[3], first compound 2.5 µg/mL, partner 0.375 µg/mL | 0.774
[3], first compound 2.5 µg/mL, partner 0.5 µg/mL | 0.734
[3], first compound 2.5 µg/mL, partner 0.75 µg/mL | 0.788
[3], first compound 2.5 µg/mL, partner 1 µg/mL | 0.779
[3], first compound 2.5 µg/mL, partner 1.5 µg/mL | 0.796
[3], first compound 2.5 µg/mL, partner 2 µg/mL | 0.809

main component drawn
Details | Bliss interaction score
[4] | 0.037
[5] | 0.0449
[6] | -0.258
[7] | -0.0672

COc1cccc2c1C(=O)c1c(O)c3c(c(O)c1C2=O)C[C@@](O)(C(=O)CO)C[C@@H]3O[C@H]1C[C@H](N)[C@H](O)[C@H](C)O1 [Doxorubicin] + CN(C)c1cc(NC(=O)CNC(C)(C)C)c(O)c2c1C[C@H]1C[C@H]3[C@H](N(C)C)C(O)=C(C(N)=O)C(=O)[C@@]3(O)C(O)=C1C2=O [Tigecycline]
fitness
Details | first compound 0.25 µg/mL | first compound 0.5 µg/mL | first compound 0.625 µg/mL | first compound 1 µg/mL | first compound 1.25 µg/mL | first compound 2.5 µg/mL
[1], partner 0.325 µg/mL | 0.927 | 0.975 | – | 0.931 | – | –
[1], partner 0.65 µg/mL | 0.928 | 0.94 | – | 0.89 | – | –
[1], partner 1.3 µg/mL | 0.926 | 0.961 | – | 0.884 | – | –
[1], partner 2.6 µg/mL | 0.874 | 0.912 | – | 0.79 | – | –
[2], partner 0.039 µg/mL | – | – | ≥ 1 | – | 0.952 | 0.65
[2], partner 0.078 µg/mL | – | – | 0.868 | – | 0.939 | 0.609
[2], partner 0.156 µg/mL | – | – | 0.919 | – | 0.879 | 0.693
[3], partner 0.039 µg/mL | – | – | 0.783 | – | 0.761 | 0.71
[3], partner 0.078 µg/mL | – | – | 0.822 | – | 0.821 | 0.742
[3], partner 0.156 µg/mL | – | – | 0.828 | – | 0.811 | 0.744

fitness, [2], one replicate
Details | first compound 0.625 µg/mL | first compound 1.25 µg/mL | first compound 2.5 µg/mL
partner 0.125 µg/mL | 0.963 | 0.984 | 0.973
partner 0.25 µg/mL | 0.89 | 0.892 | 0.916
partner 0.5 µg/mL | 0.86 | 0.913 | 0.925

Details | Bliss interaction score
[4] | -0.0419
[5] | 0.0654
[6] | 0.0886
[7] | -0.0645

COc1cccc2c1C(=O)c1c(O)c3c(c(O)c1C2=O)C[C@@](O)(C(=O)CO)C[C@@H]3O[C@H]1C[C@H](N)[C@H](O)[C@H](C)O1 [Doxorubicin] + CN[C@@H]1[C@H](O[C@H]2[C@H](O[C@H]3[C@H](O)[C@@H](O)[C@H](N=C(N)N)[C@@H](O)[C@@H]3N=C(N)N)O[C@@H](C)[C@]2(O)C=O)O[C@@H](CO)[C@H](O)[C@H]1O [Streptomycin]
fitness
Details | partner 1 µg/mL | partner 2 µg/mL | partner 4 µg/mL | partner 8 µg/mL
[1], first compound 0.25 µg/mL | – | 0.898 | 0.918 | 0.892
[1], first compound 0.5 µg/mL | – | 0.935 | 0.907 | 0.901
[1], first compound 1 µg/mL | – | 0.874 | 0.875 | 0.858
[2], first compound 0.625 µg/mL | – | 0.869 | – | 0.0284
[2], first compound 1.25 µg/mL | – | – | – | 0.0203
[2], first compound 2.5 µg/mL | – | 0.0556 | 0.0219 | 0.0198
[3], first compound 0.625 µg/mL | 0.791 | 0.788 | – | –
[3], first compound 1.25 µg/mL | 0.769 | 0.746 | – | –
[3], first compound 2.5 µg/mL | 0.75 | 0.742 | – | –

[1], partner 16 µg/mL, one replicate
Details | fitness
first compound 0.25 µg/mL | 0.817
first compound 0.5 µg/mL | 0.761
first compound 1 µg/mL | 0.558

Details | Bliss interaction score
[4] | -0.0832
[5] | 0.0825
[6] | -0.355
[7] | -0.043
